Tests used:
Type in all cases: cell-based, influenza A virus
[1] = test system: Influenza A/Philippines X-79 (H3N2); settings: 74,000 nM monovalent LSTc; data not shown
[2] = test system: influenza A/Puerto Rico/8/34 (PR/8, H1N1)
[3] = test system: influenza A/Puerto Rico/8/34 (PR/8, H1N1); design: inhibition of hemagglutination: dose or concentration left out as unconfirmed

In the case of “sialylneolacto-N-tetraose c [Monovalent LSTc]”, the “inhibition of infectivity of Philippines” value [1] is reported as “did not inhibit the infectivity”, the “inhibition of PR/8 infection of MDCK cells (FIG. 3A)” value [2] is reported as “did not significantly inhibited infection at high concentrations” and the “inhibition of infectivity of PR/8” value ([2]; 74,000 nM monovalent LSTc) is reported as “did not inhibit the infectivity”. The inhibition of hemagglutination [3] was “did not inhibit hemagglutination” and the “HAI Titer” value ([3]; four HA units of virus, human RBCs, reciprocal of last liposome dilution giving non-agglutinated RBCs) was “No inhibition”.

From patent US9408890B2, “Multivalent liposome formulations” (priority 2013, dated 2016)
